{"source": "paper PMC4242290", "about": "(Nuclear Receptor Signaling, 2014)", "key": {"[1]": {"conditions": "Phase II double-blind clinical trial; cited from earlier work"}, "His6-hERβ LBD": {"target": "His6-hERβ LBD (Homo sapiens, UniProt Q92731)", "sequence (Q92731 261-530)": "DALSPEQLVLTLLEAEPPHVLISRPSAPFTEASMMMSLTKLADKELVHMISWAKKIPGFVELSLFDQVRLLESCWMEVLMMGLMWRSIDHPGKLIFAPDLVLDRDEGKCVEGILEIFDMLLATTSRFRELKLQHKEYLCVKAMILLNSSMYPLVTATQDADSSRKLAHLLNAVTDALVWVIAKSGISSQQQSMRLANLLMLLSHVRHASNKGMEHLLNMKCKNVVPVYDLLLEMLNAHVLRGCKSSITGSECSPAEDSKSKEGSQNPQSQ", "type": "binding", "conditions": "for DSF primary screen: change in melting temperature of ERβ LBD: 500 µM"}, "ERβ [2]": {"target": "T1, ERβ (Homo sapiens, UniProt Q92731)", "T1 sequence (Q92731 whole entry)": "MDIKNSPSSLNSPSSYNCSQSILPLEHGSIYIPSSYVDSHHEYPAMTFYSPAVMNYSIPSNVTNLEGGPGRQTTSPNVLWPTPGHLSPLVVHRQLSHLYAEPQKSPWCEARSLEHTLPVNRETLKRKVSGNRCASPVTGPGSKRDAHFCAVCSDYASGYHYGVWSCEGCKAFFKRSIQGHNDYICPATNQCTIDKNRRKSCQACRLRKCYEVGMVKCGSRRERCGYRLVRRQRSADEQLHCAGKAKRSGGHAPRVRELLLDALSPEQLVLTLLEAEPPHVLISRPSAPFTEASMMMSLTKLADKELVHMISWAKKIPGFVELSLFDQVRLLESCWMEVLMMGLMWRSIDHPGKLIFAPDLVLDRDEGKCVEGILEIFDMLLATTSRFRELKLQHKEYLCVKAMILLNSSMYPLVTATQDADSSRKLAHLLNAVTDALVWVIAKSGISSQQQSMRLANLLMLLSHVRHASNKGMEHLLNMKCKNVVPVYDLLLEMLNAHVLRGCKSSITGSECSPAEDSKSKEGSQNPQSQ", "type": "binding", "conditions": "for β-selectivity (fold): IC50 for ERα divided by IC50 for ERβ, from FP"}, "GAL4 DBD-ERβ LBD": {"target": "GAL4 DBD-ERβ LBD (Homo sapiens, UniProt Q92731)", "sequence (Q92731 264-498 limits assumed)": "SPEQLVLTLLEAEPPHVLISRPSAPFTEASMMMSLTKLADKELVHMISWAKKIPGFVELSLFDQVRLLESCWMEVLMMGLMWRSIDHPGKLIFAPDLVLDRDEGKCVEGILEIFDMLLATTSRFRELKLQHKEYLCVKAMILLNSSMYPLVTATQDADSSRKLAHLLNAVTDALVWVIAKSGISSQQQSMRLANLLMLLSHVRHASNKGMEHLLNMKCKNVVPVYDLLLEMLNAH", "test": "GAL4 transactivation assay in HEK293T cells", "type": "cell-based"}, "ERβ [3]": {"target": "T1, ERβ", "conditions": "cited from earlier work"}, "ERα [4]": {"target": "T2, ERα (Homo sapiens, UniProt P03372)", "T2 sequence (P03372 1-595)": "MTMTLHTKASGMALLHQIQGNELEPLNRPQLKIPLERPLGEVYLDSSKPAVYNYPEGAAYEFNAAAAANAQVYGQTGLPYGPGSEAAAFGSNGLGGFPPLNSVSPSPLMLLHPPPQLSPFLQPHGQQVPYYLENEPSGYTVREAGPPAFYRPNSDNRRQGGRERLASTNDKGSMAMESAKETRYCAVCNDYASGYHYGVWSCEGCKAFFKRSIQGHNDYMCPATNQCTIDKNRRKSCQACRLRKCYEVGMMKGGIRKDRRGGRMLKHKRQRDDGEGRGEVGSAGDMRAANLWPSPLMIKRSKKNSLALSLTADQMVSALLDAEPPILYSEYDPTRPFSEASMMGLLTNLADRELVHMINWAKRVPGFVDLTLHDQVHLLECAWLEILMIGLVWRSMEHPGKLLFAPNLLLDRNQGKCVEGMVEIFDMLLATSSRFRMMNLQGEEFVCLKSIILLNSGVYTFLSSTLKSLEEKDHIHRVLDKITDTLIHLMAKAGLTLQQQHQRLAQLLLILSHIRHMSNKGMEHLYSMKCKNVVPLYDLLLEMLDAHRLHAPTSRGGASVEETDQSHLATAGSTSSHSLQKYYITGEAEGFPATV", "type": "binding"}, "ERβ [5]": {"target": "T1, ERβ", "conditions": "radioligand binding assay; cited from earlier work"}, "LNCaP cells": {"system": "LNCaP cells", "test": "LNCaP cell proliferation", "type": "cell-based", "conditions": "1 μM final concentration, 24 h treatment"}, "full length ERβ": {"target": "full length ERβ (Homo sapiens, UniProt Q92731)", "sequence (Q92731 whole entry)": "as the sequence (Q92731 whole entry) above", "test": "ERE-luciferase transactivation in HeLa cells, full length ERβ", "type": "cell-based"}, "ERα [6]": {"target": "T2, ERα", "conditions": "transiently transfected MCF-7 cells; cited from earlier work"}, "ERβ [7]": {"target": "T1, ERβ", "conditions": "transiently transfected MCF-7 cells; cited from earlier work"}}, "note": "“Also recorded” adds a separate entry of the source. Counter-ions that a name gives are not always drawn. *1 amine or outer side, *2 acyl side, *3 side chain or, on linkers, in order; H or OH if unused. Where a SMILES comes first, the peptide text is derived from it. Bridges are numbered along the chain shown (N, C = ends). Roman numbers before positions name the chains, in order. [ ]: non-standard residue; d: D form. Actinocin(9to1) = Cc1c2oc3c(C)ccc(C(=O)[*:1])c3nc-2c(C(=O)[*:2])c(N)c1=O; NMeV = CN[C@H](C(=O)O)C(C)C; Sar = CNCC(=O)O"}
{"molecule": "C=Cc1cc(O)cc2nc(-c3ccc(O)c(F)c3)oc12", "note": "[ERB-041]", "values": [{"measurement": "Efficacy in rheumatoid arthritis", "setting": "[1]", "value": "failed to demonstrate efficacy"}]}
{"molecule": "C[C@@H]1[C@H](O)[C@@H](C)/C=C/C=C/CC/C=C/C=C/C=C/C=C/C(O[C@H]2O[C@H](C)[C@@H](O)[C@H](N)[C@@H]2O)CC2O[C@](O)(CC(O)C(O)CCC(O)CC(O)CC(O)CC(=O)O[C@H]1C)CC(O)C2C(=O)O", "note": "(some centres unmarked) [nystatin]", "values": [{"measurement": "DSF primary screen: change in melting temperature of ERβ LBD", "setting": "His6-hERβ LBD", "value": "elicited changes in the protein melting temperature"}]}
{"molecule": "medicarpin", "values": [{"measurement": "β-selectivity (fold)", "setting": "ERβ [2]", "value": "greater than 2 fold"}]}
{"molecule": "CC[C@]1(O)CC[C@H]2[C@@H]3CCC4=CCCC[C@@H]4[C@H]3CC[C@@]21C", "note": "[ethylestrenol]", "values": [{"measurement": "DSF primary screen: change in melting temperature of ERβ LBD", "setting": "His6-hERβ LBD", "value": "putative binders"}]}
{"molecule": "CCN(CC)CCOc1ccc(C(=C(Cl)c2ccccc2)c2ccccc2)cc1", "note": "[clomiphene citrate]", "values": [{"measurement": "IC50", "setting": "GAL4 DBD-ERβ LBD", "value": 221, "unit": "nM"}, {"measurement": "Binding to ERβ in FP (competition with fluorescein labeled E2), result in words", "setting": "ERβ [2]", "value": "binders"}, {"measurement": "DSF primary screen: change in melting temperature of ERβ LBD", "setting": "His6-hERβ LBD", "value": "putative binders"}]}
{"molecule": "C[C@]12CC[C@H]3[C@@H](CC=C4C[C@@H](O)CC[C@@]43C)[C@@H]1CC[C@@H]2O", "note": "[5-androstenediol]", "values": [{"measurement": "ER subtype selectivity", "setting": "ERβ [3]", "value": "ERβ selective"}]}
{"molecule": "C[C@H]1CCC[C@H](O)CCCCCc2cc(O)cc(O)c2C(=O)O1", "note": "[zeranol]", "values": [{"measurement": "Binding to ERα in FP (competition with fluorescein labeled E2), result in words", "setting": "ERα [4]", "value": "binders"}]}
{"molecule": "C[C@]12CC[C@@H]3c4ccc(O)cc4CC[C@H]3[C@@H]1C[C@@H](O)[C@@H]2O", "note": "[estriol]", "values": [{"measurement": "Binding to ERβ in FP (competition with fluorescein labeled E2), result in words", "setting": "ERβ [2]", "value": "binders; also recorded: greater relative affinity than estrone"}]}
{"molecule": "CCOC(=O)C1=C(C)NC(C)=C(C(=O)OC)C1c1cccc(Cl)c1Cl", "note": "(centres unmarked) [felodipine]", "values": [{"measurement": "DSF primary screen: change in melting temperature of ERβ LBD", "setting": "His6-hERβ LBD", "value": "showed up as hits in the primary assay"}]}
{"molecule": "c1ccc2c(Cc3c[nH]c4ccccc34)c[nH]c2c1", "note": "[3,3’-diindolylmethane]", "values": [{"measurement": "Selectivity of binding to ERβ", "setting": "ERβ [3]", "value": "did not bind selectively to ERβ"}]}
{"molecule": "Cc1c2oc3c(C)ccc(C(=O)N[C@@H]4C(=O)N[C@H](C(C)C)C(=O)N5CCC[C@H]5C(=O)N(C)CC(=O)N(C)[C@@H](C(C)C)C(=O)O[C@@H]4C)c3nc-2c(C(=O)N[C@@H]2C(=O)N[C@H](C(C)C)C(=O)N3CCC[C@H]3C(=O)N(C)CC(=O)N(C)[C@@H](C(C)C)C(=O)O[C@@H]2C)c(N)c1=O", "note": "[dactinomycin] (I: T[dV]P[Sar][NMeV] / II: T[dV]P[Sar][NMeV]; ester I:1-I:C, II:1-II:C; linker I:N-II:N via Actinocin(9to1))", "values": [{"measurement": "DSF primary screen: change in melting temperature of ERβ LBD", "setting": "His6-hERβ LBD", "value": "elicited changes in the protein melting temperature"}]}
{"molecule": "CCCCCC[C@H]1C(=O)O[C@H](C)[C@H](NC(=O)c2cccc(NC=O)c2O)C(=O)O[C@@H](C)[C@@H]1OC(=O)CC(C)C", "note": "[antimycin A]", "values": [{"measurement": "DSF primary screen: change in melting temperature of ERβ LBD", "setting": "His6-hERβ LBD", "value": "elicited changes in the protein melting temperature"}]}
{"molecule": "COc1cc(/C=C/c2ccc(O)cc2)cc(OC)c1", "note": "[pterostilbene]", "values": [{"measurement": "DSF primary screen: change in melting temperature of ERβ LBD", "setting": "His6-hERβ LBD", "value": "putative binders"}]}
{"molecule": "O=C1C[C@@H](c2ccc(O)cc2)Oc2cc(O)cc(O)c21", "note": "[naringenin]", "values": [{"measurement": "β-selectivity (fold)", "setting": "ERβ [2]", "value": "greater than 2 fold"}, {"measurement": "DSF primary screen: change in melting temperature of ERβ LBD", "setting": "His6-hERβ LBD", "value": "putative binders"}]}
{"molecule": "CC[C@H](c1ccc(O)cc1)[C@@H](CC)c1ccc(O)cc1", "note": "[hexestrol, reference compound]", "values": [{"measurement": "Binding to ERα in FP (competition with fluorescein labeled E2), result in words", "setting": "ERα [4]", "value": "binders"}, {"measurement": "Binding to ERβ in FP (competition with fluorescein labeled E2), result in words", "setting": "ERβ [2]", "value": "binders"}, {"measurement": "DSF primary screen: change in melting temperature of ERβ LBD", "setting": "His6-hERβ LBD", "value": "putative binders"}, {"measurement": "Ki for ERβ compared with ERα", "setting": "ERβ [5]", "value": "the same for both isoforms"}]}
{"molecule": "goserelin acetate", "values": [{"measurement": "DSF primary screen: change in melting temperature of ERβ LBD", "setting": "His6-hERβ LBD", "value": "elicited changes in the protein melting temperature"}]}
{"molecule": "C[C@@H](CO)CCC[C@@H](C)[C@H]1CC[C@H]2[C@@H]3CC=C4C[C@@H](O)CC[C@]4(C)[C@H]3CC[C@]12C", "note": "[27-hydroxycholesterol, reference compound]", "values": [{"measurement": "LNCaP cell proliferation (cell viability)", "setting": "LNCaP cells", "value": "Suppression of proliferation"}]}
{"molecule": "C[C@]12CC[C@H](O)CC1=CC[C@@H]1[C@@H]2CC[C@]2(C)C(=O)CC[C@@H]12", "note": "[DHEA, dehydroepiandrosterone]", "values": [{"measurement": "Binding to ERα in FP (competition with fluorescein labeled E2), result in words", "setting": "ERα [4]", "value": "binders"}, {"measurement": "Relative transactivation activity, full length ERβ", "setting": "full length ERβ; 1 μM final concentration", "value": "greater capacity for ERβ activation than the selective partial agonist 27-hydroxycholesterol"}, {"measurement": "ER subtype selectivity of transactivation (ERβ versus ERα)", "setting": "full length ERβ; full length ERs, 1 μM", "value": "strong ERβ selectivity"}, {"measurement": "Binding to ERβ in FP (competition with fluorescein labeled E2), result in words", "setting": "ERβ [2]", "value": "binders"}, {"measurement": "β-selectivity (fold)", "setting": "ERβ [2]", "value": "greater than 2 fold"}, {"measurement": "Tm of His6-hERβ LBD purification product", "setting": "His6-hERβ LBD", "value": "~ 55 ºC"}, {"measurement": "DSF primary screen: change in melting temperature of ERβ LBD", "setting": "His6-hERβ LBD", "value": "putative binders"}, {"measurement": "Ki for ERβ compared with ERα", "setting": "ERβ [5]", "value": "lower for ERβ than ERα"}, {"measurement": "LNCaP cell proliferation (cell viability)", "setting": "LNCaP cells", "value": "Suppression of proliferation"}]}
{"molecule": "C[C@]12CC[C@H]3C(=CCc4cc(O)ccc43)[C@@H]1CCC2=O", "note": "[equilin]", "values": [{"measurement": "DSF primary screen: change in melting temperature of ERβ LBD", "setting": "His6-hERβ LBD", "value": "putative binders"}]}
{"molecule": "C#C[C@]1(O)CC[C@H]2[C@@H]3CCc4cc(O)ccc4[C@H]3CC[C@@]21C", "note": "[ethinyl estradiol]", "values": [{"measurement": "DSF primary screen: change in melting temperature of ERβ LBD", "setting": "His6-hERβ LBD", "value": "putative binders"}]}
{"molecule": "CC/C(=C(/CC)c1ccc(O)cc1)c1ccc(O)cc1", "note": "[diethylstilbestrol, reference compound]", "values": [{"measurement": "Binding to ERβ in FP (competition with fluorescein labeled E2), result in words", "setting": "ERβ [2]", "value": "binders"}]}
{"molecule": "O=c1cc(-c2ccc(O)c(O)c2)oc2cc(O)cc(O)c12", "note": "[luteolin]", "values": [{"measurement": "β-selectivity (fold)", "setting": "ERβ [2]", "value": "greater than 2 fold"}, {"measurement": "Activation of ERα", "setting": "ERα [6]", "value": "no effect on ERα"}, {"measurement": "Activation of ERβ", "setting": "ERβ [7]", "value": "very slight effect on ERβ"}]}
